Data reported in US9096591B2, “Tetracyclic compounds” (Medivation Technologies, Inc., priority 2007, dated 2015).
Like-named read-outs stand apart in the source and are kept apart here.

What was measured:
[1] = target: T1, human recombinant histamine H2 receptor (Homo sapiens, UniProt P25021); test: Histamine H2 radioligand binding ([125I]Aminopotentidine)
T1 construct: expressed in transfected cells; host or cells: CHO-K1 cells
Procedure, shortened: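 Test compounds were assessed for their ability to displace radioligand from the human recombinant histamine H2 receptor. Non-specific binding was determined in the presence of 3 μM Tiotidine, and results were expressed as percent inhibition of specific binding, with 1% DMSO serving as the vehicle.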

[2] = target: T2, Serotonin (5-Hydroxytryptamine) 5-HT7 (Homo sapiens, UniProt P34969); test: Serotonin 5-HT7 radioligand binding ([3H]LSD); design: Inhibition of ligand binding, Ser. 5-HT7: concentration or dose not given beside the values; conditions: for Inhibition of ligand binding, Ser. 5-HT7: percent inhibition of specific binding
T2 construct: expressed in transfected cells; host or cells: CHO cells
T2 sequence (P34969 whole entry): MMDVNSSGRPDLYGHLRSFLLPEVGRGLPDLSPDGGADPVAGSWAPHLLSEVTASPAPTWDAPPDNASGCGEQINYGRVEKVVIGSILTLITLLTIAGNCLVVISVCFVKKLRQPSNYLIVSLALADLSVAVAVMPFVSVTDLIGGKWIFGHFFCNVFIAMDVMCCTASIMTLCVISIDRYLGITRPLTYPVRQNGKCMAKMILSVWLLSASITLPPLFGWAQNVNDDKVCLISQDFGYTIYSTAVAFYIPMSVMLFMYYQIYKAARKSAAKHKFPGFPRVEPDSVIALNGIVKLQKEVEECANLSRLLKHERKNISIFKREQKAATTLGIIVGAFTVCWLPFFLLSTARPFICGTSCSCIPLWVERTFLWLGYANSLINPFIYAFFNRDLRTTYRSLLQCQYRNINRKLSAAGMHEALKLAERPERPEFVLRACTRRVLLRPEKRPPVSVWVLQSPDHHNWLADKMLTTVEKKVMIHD
Method: Lysergic acid diethylamide (LSD) for 2 hours at 25° C. […] Receptor proteins were filtered and washed, the filters were then counted to determine [^3H]LSD specifically bound. […] Biochemical assay results are presented as the percent inhibition of specific binding in Table 6.

[3] = target: T3, human recombinant adrenergic α1D receptor (Homo sapiens, UniProt P25100); test: Adrenergic α1D radioligand binding ([3H]Prozosin); design: Inhibition of ligand binding, Adren. alpha1D: concentration or dose not given beside the values; conditions: for Inhibition of ligand binding, Adren. alpha1D: percent inhibition of specific binding
T3 construct: expressed in transfected cells; host or cells: HEK-293 cells
T3 sequence (P25100 1-572): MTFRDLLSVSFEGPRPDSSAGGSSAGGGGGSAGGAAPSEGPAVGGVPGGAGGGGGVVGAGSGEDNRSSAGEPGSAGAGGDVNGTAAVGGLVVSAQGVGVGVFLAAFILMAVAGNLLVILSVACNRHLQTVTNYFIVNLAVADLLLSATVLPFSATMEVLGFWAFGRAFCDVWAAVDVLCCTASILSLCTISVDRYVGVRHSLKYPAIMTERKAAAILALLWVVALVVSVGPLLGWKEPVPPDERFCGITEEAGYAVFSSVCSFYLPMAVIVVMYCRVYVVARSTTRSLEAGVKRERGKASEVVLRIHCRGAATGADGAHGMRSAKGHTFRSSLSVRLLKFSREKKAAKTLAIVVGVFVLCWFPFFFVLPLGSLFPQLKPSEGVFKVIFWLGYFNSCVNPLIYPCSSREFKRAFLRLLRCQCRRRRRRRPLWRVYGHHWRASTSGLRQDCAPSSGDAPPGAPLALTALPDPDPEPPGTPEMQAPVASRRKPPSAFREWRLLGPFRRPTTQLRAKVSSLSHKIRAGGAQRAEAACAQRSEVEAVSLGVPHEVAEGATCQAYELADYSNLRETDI
Method: Compounds of invention were incubated with 0.6 nM [^3H]Prozosin for 60 minutes at 25° C. Non-specific binding was estimated in the presence of 10 μM phentolamine. Receptor proteins were filtered and washed, the filters were then counted to determine [^3H]Prozosin specifically bound. […] Biochemical assay results are presented as the percent inhibition of specific binding in Table 6.

[4] = target: T4, human recombinant adrenergic α2A receptor (Homo sapiens, UniProt P08913); test: Adrenergic α2A radioligand binding ([3H]MK-912); design: Inhibition of ligand binding, Adren. alpha2A: concentration or dose not given beside the values; conditions: for Inhibition of ligand binding, Adren. alpha2A: percent inhibition of specific binding
T4 construct: expressed in transfected cells; host or cells: insect Sf9 cells
T4 sequence (P08913 1-465): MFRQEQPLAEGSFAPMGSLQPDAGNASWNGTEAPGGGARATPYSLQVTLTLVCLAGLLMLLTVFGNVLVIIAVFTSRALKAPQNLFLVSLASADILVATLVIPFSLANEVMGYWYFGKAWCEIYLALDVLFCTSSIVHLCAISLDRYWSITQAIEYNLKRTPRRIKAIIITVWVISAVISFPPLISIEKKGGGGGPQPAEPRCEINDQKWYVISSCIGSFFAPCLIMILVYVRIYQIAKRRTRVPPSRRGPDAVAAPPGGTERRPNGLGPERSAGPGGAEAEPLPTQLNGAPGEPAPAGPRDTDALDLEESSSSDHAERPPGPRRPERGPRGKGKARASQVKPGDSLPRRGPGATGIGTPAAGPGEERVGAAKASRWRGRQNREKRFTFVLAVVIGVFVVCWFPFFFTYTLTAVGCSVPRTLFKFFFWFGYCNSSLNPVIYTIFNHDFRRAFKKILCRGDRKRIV
Procedure, shortened: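 Membranes from Sf9 cells expressing the receptor were incubated with 1 nM [3H]MK-912 for 60 minutes at 25° C in 50 mM Tris-HCl pH 7.4, 12.5 mM MgCl2, 2 mM EDTA. 10 μM WB-4101 defined non-specific binding. Values are percent inhibition of specific bound radioactivity after filtration.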

[5] = 1 μM compound, 0.1 nM [125I]Aminopotentidine, read-out: Histamine Binding H2, percent inhibition of specific binding
[6] = percent inhibition of specific binding, screened at 1 μM, read-out: Inhibition of ligand binding, Hist. H2

T1 sequence (P25021 whole entry): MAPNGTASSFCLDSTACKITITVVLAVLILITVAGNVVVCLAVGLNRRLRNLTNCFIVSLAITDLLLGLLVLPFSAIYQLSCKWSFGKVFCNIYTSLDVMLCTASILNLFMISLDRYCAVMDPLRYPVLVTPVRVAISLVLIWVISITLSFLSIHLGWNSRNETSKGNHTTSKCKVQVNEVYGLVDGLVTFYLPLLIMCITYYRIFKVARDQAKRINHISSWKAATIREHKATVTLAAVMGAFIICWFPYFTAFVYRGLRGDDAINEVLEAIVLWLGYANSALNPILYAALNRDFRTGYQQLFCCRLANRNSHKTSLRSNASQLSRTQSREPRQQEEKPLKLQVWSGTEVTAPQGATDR

Structure (SMILES) | inhibition at 1 µM [1, 5] | inhibition at 1 µM [1, 6] | Inhibition of ligand binding, Ser. 5-HT7 [2] | Inhibition of ligand binding, Adren. alpha1D [3] | Inhibition of ligand binding, Adren. alpha2A [4] | inhibition at 1 µM ([1]; compounds screened at 1 μM, read-out: Inhibition of ligand binding, Hist. H2 (percent inhibition of specific binding)) | inhibition at 1 µM ([2]; compounds screened at 1 μM, read-out: Inhibition of ligand binding, Ser. 5-HT7 (percent inhibition of specific binding)) | inhibition at 1 µM ([3]; compounds screened at 1 μM, read-out: Inhibition of ligand binding, Adren. alpha1D (percent inhibition of specific binding)) | inhibition at 1 µM ([4]; compounds screened at 1 μM, read-out: Inhibition of ligand binding, Adren. alpha2A (percent inhibition of specific binding)) | inhibition at 0.3 µM ([1]; 0.3 μM compound, 0.1 nM [125I]Aminopotentidine, read-out: Histamine Binding H2, percent inhibition of specific binding)
CN1CCc2c(c3cc(I)ccc3n2CCc2ccccc2F)C1 [Compound 89, 5-(2-fluorophenethyl)-2,3,4,5-tetrahydro-8-iodo-2-methyl-1H-pyrido[4,3-b]indole] | 88% | 88% | 100% | 82% | 98% | – | – | – | – | –
CN1CCc2c(c3cc(F)ccc3n2CCc2nc(-c3ccccc3)cs2)C1 [Compound C1-7] | – | – | – | – | – | 55% | 90% | 66% | 88% | –
CCN1CCc2c(c3ccccc3n2CCc2ccncc2)C1 [Compound 5] | 2% | 2% | 37% | 21% | 20% | – | – | – | – | –
Cc1ccc2c(c1)c1c(n2CCc2ccncc2)CCN(C)C1 [Compound 22, 2,3,4,5-tetrahydro-2,8-dimethyl-5-(2-(pyridin-4-yl)ethyl)-1H-pyrido[4,3-b]indole] | 49% | 53% | 99% | 83% | 72% | – | – | – | – | 29%
CN1CCc2c(c3ccccc3n2CCc2ccncc2)C1 [Compound 10, 2,3,4,5-tetrahydro-2-methyl-5-(2-(pyridin-4-yl)ethyl)-1H-pyrido[4,3-b]indole] | 12% | 12% | 73% | 19% | 33% | – | – | – | – | –
